Experimental data as given in PubChem BioAssay AID2060623 (Molecular Pharmacology Branch, DTP, NCI, 2025).

Tested on: 227483-062-R1-J1-PDC complex spheroids with HUVEC/MSC, viability
Test: Anticancer human tumor 227483-062-R1-J1-PDC patient-derived pancreatic carcinoma cell line growth inhibition [CLK]
Details: for IC50: curve of first compound; for viability, T/C: stronger effect = lower value
In short: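 Patient-derived tumor cells grown as complex spheroids with HUVEC endothelial cells and mesenchymal stem cells, treated with drug combinations. Concentrations descend in half-log steps from near clinical Cmax, or from 10 microM if Cmax unknown.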

[1] = second compound 0.0316 µM, first compound 0.0316 µM
[2] = second compound 0.0316 µM, first compound 0.1 µM
[3] = second compound 0.1 µM, first compound 0.0316 µM
[4] = second compound 0.1 µM, first compound 0.1 µM
[5] = second compound 0.316 µM, first compound 0.0316 µM
[6] = second compound 0.316 µM, first compound 0.1 µM
[7] = second compound 1 µM, first compound 0.0316 µM
[8] = second compound 1 µM, first compound 0.1 µM
[9] = second compound 3.16 µM, first compound 0.0316 µM
[10] = second compound 3.16 µM, first compound 0.1 µM
[11] = second compound 10 µM, first compound 0.0316 µM
[12] = second compound 10 µM, first compound 0.1 µM
[13] = second compound 0.0316 µM, first compound 0.316 µM
[14] = second compound 0.0316 µM, first compound 1 µM
[15] = second compound 0.0316 µM, first compound 3.16 µM
[16] = second compound 0.0316 µM, first compound 10 µM
[17] = second compound 0.1 µM, first compound 0.316 µM
[18] = second compound 0.1 µM, first compound 1 µM
[19] = second compound 0.1 µM, first compound 3.16 µM
[20] = second compound 0.1 µM, first compound 10 µM
[21] = second compound 0.316 µM, first compound 0.316 µM
[22] = second compound 0.316 µM, first compound 1 µM
[23] = second compound 0.316 µM, first compound 3.16 µM
[24] = second compound 0.316 µM, first compound 10 µM
[25] = second compound 1 µM, first compound 0.316 µM
[26] = second compound 1 µM, first compound 1 µM
[27] = second compound 1 µM, first compound 3.16 µM
[28] = second compound 1 µM, first compound 10 µM
[29] = second compound 3.16 µM, first compound 0.316 µM
[30] = second compound 3.16 µM, first compound 1 µM
[31] = second compound 3.16 µM, first compound 3.16 µM
[32] = second compound 3.16 µM, first compound 10 µM
[33] = second compound 10 µM, first compound 0.316 µM
[34] = second compound 10 µM, first compound 1 µM
[35] = second compound 10 µM, first compound 3.16 µM
[36] = second compound 10 µM, first compound 10 µM
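Further: spheroids exposed to compounds for seven days before readout.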
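Wherever viability, T/C is given: percent of DMSO vehicle control luminescence as 100% viability.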

SMILES: Cn1ncnc1[C@H]1c2n[nH]c(=O)c3cc(F)cc(c23)N[C@@H]1c1ccc(F)cc1 + CN1CCN(c2cc(C(=O)Nc3cc4cc(-c5cnn(C)c5)ccc4cn3)ccn2)CC1
- IC50 (second compound 0.0316 µM): > 100 nM
- IC50 (second compound 0.1 µM): > 100 nM
- IC50 (second compound 0.316 µM): < 0.316 nM
- IC50 (second compound 1 µM): < 0.316 nM
- IC50 (second compound 3.16 µM): < 0.316 nM
- IC50 (second compound 10 µM): < 0.316 nM
- viability, T/C (second compound 0.0316 µM, first compound 0.000316 µM): 114%
- viability, T/C (second compound 0.0316 µM, first compound 0.001 µM): 118%
- viability, T/C (second compound 0.0316 µM, first compound 0.00316 µM): 114%
- viability, T/C (second compound 0.0316 µM, first compound 0.01 µM): 101%
- viability, T/C [1]: 95.3%
- viability, T/C [2]: 92.3%
- viability, T/C (second compound 0.1 µM, first compound 0.000316 µM): 44.2%
- viability, T/C (second compound 0.1 µM, first compound 0.001 µM): 66.2%
- viability, T/C (second compound 0.1 µM, first compound 0.00316 µM): 53.6%
- viability, T/C (second compound 0.1 µM, first compound 0.01 µM): 53.5%
- viability, T/C [3]: 56.3%
- viability, T/C [4]: 54.8%
- viability, T/C (second compound 0.316 µM, first compound 0.000316 µM): 3.12%
- viability, T/C (second compound 0.316 µM, first compound 0.001 µM): 3.26%
- viability, T/C (second compound 0.316 µM, first compound 0.00316 µM): 3.58%
- viability, T/C (second compound 0.316 µM, first compound 0.01 µM): 4.15%
- viability, T/C [5]: 3.29%
- viability, T/C [6]: 4.45%
- viability, T/C (second compound 1 µM, first compound 0.000316 µM): 1.25%
- viability, T/C (second compound 1 µM, first compound 0.001 µM): 1.34%
- viability, T/C (second compound 1 µM, first compound 0.00316 µM): 1.34%
- viability, T/C (second compound 1 µM, first compound 0.01 µM): 2.07%
- viability, T/C [7]: 1.23%
- viability, T/C [8]: 1.14%
- viability, T/C (second compound 3.16 µM, first compound 0.000316 µM): 1.84%
- viability, T/C (second compound 3.16 µM, first compound 0.001 µM): 2.14%
- viability, T/C (second compound 3.16 µM, first compound 0.00316 µM): 1.91%
- viability, T/C (second compound 3.16 µM, first compound 0.01 µM): 2.43%
- viability, T/C [9]: 1.6%
- viability, T/C [10]: 1.89%
- viability, T/C (second compound 10 µM, first compound 0.000316 µM): 1.14%
- viability, T/C (second compound 10 µM, first compound 0.001 µM): 1.09%
- viability, T/C (second compound 10 µM, first compound 0.00316 µM): 1.63%
- viability, T/C (second compound 10 µM, first compound 0.01 µM): 2.37%
- viability, T/C [11]: 1.2%
- viability, T/C [12]: 1%

SMILES: Nc1ccn(C2OC(CO)C(O)C2(F)F)c(=O)n1 (stereo unspecified) + CN1CCN(c2cc(C(=O)Nc3cc4cc(-c5cnn(C)c5)ccc4cn3)ccn2)CC1
- IC50 (second compound 0.0316 µM): 72.5 nM
- IC50 (second compound 0.1 µM): < 31.6 nM
- IC50 (second compound 0.316 µM): < 31.6 nM
- IC50 (second compound 1 µM): < 31.6 nM
- IC50 (second compound 3.16 µM): < 31.6 nM
- IC50 (second compound 10 µM): < 31.6 nM
- viability, T/C [1]: 76%
- viability, T/C [2]: 39%
- viability, T/C [13]: 32.1%
- viability, T/C [14]: 35.6%
- viability, T/C [15]: 27.6%
- viability, T/C [16]: 24.1%
- viability, T/C [3]: 36.7%
- viability, T/C [4]: 25.1%
- viability, T/C [17]: 24.1%
- viability, T/C [18]: 21%
- viability, T/C [19]: 22.5%
- viability, T/C [20]: 15%
- viability, T/C [5]: 4.9%
- viability, T/C [6]: 3.69%
- viability, T/C [21]: 3.08%
- viability, T/C [22]: 2.47%
- viability, T/C [23]: 2.75%
- viability, T/C [24]: 1.97%
- viability, T/C [7]: 1.05%
- viability, T/C [8]: 1.34%
- viability, T/C [25]: 2.72%
- viability, T/C [26]: 2.08%
- viability, T/C [27]: 1.09%
- viability, T/C [28]: 1.14%
- viability, T/C [9]: 2.12%
- viability, T/C [10]: 2.2%
- viability, T/C [29]: 3.37%
- viability, T/C [30]: 1.88%
- viability, T/C [31]: 1.71%
- viability, T/C [32]: 1.79%
- viability, T/C [11]: 0.96%
- viability, T/C [12]: 0.85%
- viability, T/C [33]: 1.06%
- viability, T/C [34]: 1.19%
- viability, T/C [35]: 0.9%
- viability, T/C [36]: 0.79%

SMILES: O=c1[nH]cc(F)c(=O)[nH]1 + CN1CCN(c2cc(C(=O)Nc3cc4cc(-c5cnn(C)c5)ccc4cn3)ccn2)CC1
- IC50 (second compound 0.0316 µM): 2920 nM
- IC50 (second compound 0.1 µM): 362 nM
- IC50 (second compound 0.316 µM): < 31.6 nM
- IC50 (second compound 1 µM): < 31.6 nM
- IC50 (second compound 3.16 µM): < 31.6 nM
- IC50 (second compound 10 µM): < 31.6 nM
- viability, T/C [1]: 113%
- viability, T/C [2]: 117%
- viability, T/C [13]: 109%
- viability, T/C [14]: 76.9%
- viability, T/C [15]: 50.8%
- viability, T/C [16]: 31.9%
- viability, T/C [3]: 69.3%
- viability, T/C [4]: 57.1%
- viability, T/C [17]: 58.1%
- viability, T/C [18]: 38.1%
- viability, T/C [19]: 27.5%
- viability, T/C [20]: 20.5%
- viability, T/C [5]: 6.26%
- viability, T/C [6]: 5.02%
- viability, T/C [21]: 5.2%
- viability, T/C [22]: 4.61%
- viability, T/C [23]: 4.43%
- viability, T/C [24]: 3.27%
- viability, T/C [7]: 1.65%
- viability, T/C [8]: 2.05%
- viability, T/C [25]: 5.56%
- viability, T/C [26]: 1.25%
- viability, T/C [27]: 1.55%
- viability, T/C [28]: 1.14%
- viability, T/C [9]: 4.69%
- viability, T/C [10]: 2.74%
- viability, T/C [29]: 3.16%
- viability, T/C [30]: 2.23%
- viability, T/C [31]: 2.22%
- viability, T/C [32]: 2.26%
- viability, T/C [11]: 1.91%
- viability, T/C [12]: 1.38%
- viability, T/C [33]: 1.3%
- viability, T/C [34]: 3.91%
- viability, T/C [35]: 1.9%
- viability, T/C [36]: 2.3%
